Experiments:
[1] = octanol-water partition coefficient; no reference given; cited from earlier work
[2] = Human cadaver skin permeation evaluation (static Franz cells); type: in vitro ADME
Experimental: Dermatomed full thickness human cadaver skin samples, 250–350 μm, were mounted onto static Franz cells. […] Phosphate buffered saline, pH 7.4 was used as the receptor medium. CGB400 gel was applied to the SC side of the skin samples at a dose of ~15 μl/cm^2 (~15 mg/cm^2). The cells were kept in a chamber at 37°C for a period of 24 h. Stirrers in the receptor chamber ensured that the receptor media was well mixed during this time. The receptor media was sampled at 4, 7, and 24 h to quantify the amount of choline and geranic acid permeation. After 24 h, the skin surface was washed before removing the SC by tape stripping. The SC was stripped from the epidermis using an adhesive tape up to 10 layers (SC1, SC2‐5, SC6‐10). Following SC removal, the epidermis was separated from the dermis using a surgical sterile scalpel and the dermis was cut into pieces. Each layer was collected separately in glass vials containing 2 ml of 50:50 water:methanol mixture and was left to shake overnight to extract the choline and geranic acid. The amount of choline and geranic acid was measured using LC–MS/MS in the wash, epidermis, dermis, and the receptor medium.

Row | Compound | LogP [1] | applied CAGE1:2 dose penetrated into the dermis [2] | molar ratio of choline to geranic acid in the epidermis [2]
1 | C[N+](C)(C)CCO [choline] | −3.7 | – | –
2 | CC(C)=CCC/C(C)=C/C(=O)O [geranic acid] | 2.8 | – | –
3 | Choline geranate [CAGE1:2] | – | About 9.5% | 1.18

— PMC8126811, “Clinical translation of choline and geranic acid deep eutectic solvent” (Bioengineering & Translational Medicine, 2020)
